Data: patent US6765127B1, “Invertebrate intestinal mucin cDNA and related products and methods” (Boyce Thompson Institute for Plant Research, Inc., priority 1998, dated 2004)

What was measured:
Lymantria dispar = experiment: PM formation with Calcofluor; type: in vivo
T. ni larvae [1] = experiment: Baculovirus infection of Calcofluor treated larvae; type: in vivo; details: Calcofluor disrupted PM formation
Hyphantria cunea = experiment: PM formation with Calcofluor; type: in vivo
T. ni PMs = experiment: Extraction of chitin binding proteins from dissected PMs with Calcofluor
Excerpt: (§1) Calcofluor is a fluorescent dye with high chitin binding affinity. It has been utilized in studies on the formation of fungi and algal cell walls which are protective structures containing chitin and proteins. Calcofluor interferes with the cell wall formation by binding to nascent chitin molecules during cell wall formation, thus blocking chitin fibril assembly. Similar investigations on insect midgut chitin fibril formation using the chitin binding agent Calcofluor had not been approached until our recent studies were carried out. […] These isolated proteins have high chitin binding properties and are normally not extractable from fully formed PMs by detergents or extreme pH conditions. […] We believe that this phenomenon is due to the disruption of chitin fibril formation by the binding of Calcofluor to nascent chitin molecules as observed in other organisms.

Helicoverpa zea = experiment: PM formation with Calcofluor; type: in vivo
Pseudaletia unipuncta = experiment: PM formation with Calcofluor; type: in vivo
T. ni larvae [2] = experiment: PM formation in larvae fed Calcofluor; type: in vivo; details: Calcofluor fed to T. ni larvae
Excerpt: as §1

T. ni larvae [3] = experiment: Feeding T. ni larvae artificial diet containing Calcofluor; type: in vivo; details: artificial diet containing 1% Calcofluor
TnGV enhancin = TnGV enhancin (Trichoplusia ni granulosis virus, UniProt P29998); details: 10 mM EDTA in incubation buffer
TnGV enhancin, sequence (P29998 whole entry): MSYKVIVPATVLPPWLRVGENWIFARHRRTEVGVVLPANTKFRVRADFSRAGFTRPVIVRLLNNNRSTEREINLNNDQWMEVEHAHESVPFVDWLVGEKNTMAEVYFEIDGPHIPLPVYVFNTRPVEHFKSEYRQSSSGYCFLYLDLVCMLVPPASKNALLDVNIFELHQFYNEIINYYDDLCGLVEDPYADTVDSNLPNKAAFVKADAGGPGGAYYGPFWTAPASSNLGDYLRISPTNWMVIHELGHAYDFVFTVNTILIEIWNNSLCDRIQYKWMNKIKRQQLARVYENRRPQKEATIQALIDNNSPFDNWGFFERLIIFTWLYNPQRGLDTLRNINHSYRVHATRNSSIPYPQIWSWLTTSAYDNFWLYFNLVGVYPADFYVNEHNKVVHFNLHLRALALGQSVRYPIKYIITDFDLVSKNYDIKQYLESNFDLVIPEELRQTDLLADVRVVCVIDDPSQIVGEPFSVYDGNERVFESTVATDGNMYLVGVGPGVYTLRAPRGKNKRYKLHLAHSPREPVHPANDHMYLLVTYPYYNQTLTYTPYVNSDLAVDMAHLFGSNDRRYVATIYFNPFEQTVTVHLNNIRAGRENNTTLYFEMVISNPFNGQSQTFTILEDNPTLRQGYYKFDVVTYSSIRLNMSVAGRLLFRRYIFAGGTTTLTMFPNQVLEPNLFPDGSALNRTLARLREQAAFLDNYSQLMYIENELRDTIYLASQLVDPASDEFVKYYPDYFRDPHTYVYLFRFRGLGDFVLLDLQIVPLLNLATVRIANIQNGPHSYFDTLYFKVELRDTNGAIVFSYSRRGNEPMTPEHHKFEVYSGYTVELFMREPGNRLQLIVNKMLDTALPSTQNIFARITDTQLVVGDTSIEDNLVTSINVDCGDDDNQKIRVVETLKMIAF
Description: The degradation of IIM was examined by SDS/PAGE analysis. A parallel treatment of IIM without enhancin was included as a control. […] To confirm the metalloprotease nature of enhancin, IIM was incubated with TnGV enhancin in the presence of 10 mM EDTA.

[4] = test system: endogenous midgut proteases; experiment: Resistance of IIM in PMs to endogenous digestive proteases; parameters: species or system T. ni
Excerpt: The stability of the IIM when exposed to degestive enzymes for long periods is aided by the O-linked carbohydrate moieties found in associated glycoproteins. […] Control treatments using PMS with inactivated or inhibited endogenous midgut proteases, confirmed that the degradation of IIM in the presence of O-glycosidase was a result of hydrolysis by endogenous digestive proteases, following removal of the protective carbohydrate moiety, galactose β(1-3) N-acetylgalactosamine.

[5] = test system: T1, invertebrate intestinal mucin (IIM) from Trichoplusia ni peritrophic membranes (native protein)
T1 sequence: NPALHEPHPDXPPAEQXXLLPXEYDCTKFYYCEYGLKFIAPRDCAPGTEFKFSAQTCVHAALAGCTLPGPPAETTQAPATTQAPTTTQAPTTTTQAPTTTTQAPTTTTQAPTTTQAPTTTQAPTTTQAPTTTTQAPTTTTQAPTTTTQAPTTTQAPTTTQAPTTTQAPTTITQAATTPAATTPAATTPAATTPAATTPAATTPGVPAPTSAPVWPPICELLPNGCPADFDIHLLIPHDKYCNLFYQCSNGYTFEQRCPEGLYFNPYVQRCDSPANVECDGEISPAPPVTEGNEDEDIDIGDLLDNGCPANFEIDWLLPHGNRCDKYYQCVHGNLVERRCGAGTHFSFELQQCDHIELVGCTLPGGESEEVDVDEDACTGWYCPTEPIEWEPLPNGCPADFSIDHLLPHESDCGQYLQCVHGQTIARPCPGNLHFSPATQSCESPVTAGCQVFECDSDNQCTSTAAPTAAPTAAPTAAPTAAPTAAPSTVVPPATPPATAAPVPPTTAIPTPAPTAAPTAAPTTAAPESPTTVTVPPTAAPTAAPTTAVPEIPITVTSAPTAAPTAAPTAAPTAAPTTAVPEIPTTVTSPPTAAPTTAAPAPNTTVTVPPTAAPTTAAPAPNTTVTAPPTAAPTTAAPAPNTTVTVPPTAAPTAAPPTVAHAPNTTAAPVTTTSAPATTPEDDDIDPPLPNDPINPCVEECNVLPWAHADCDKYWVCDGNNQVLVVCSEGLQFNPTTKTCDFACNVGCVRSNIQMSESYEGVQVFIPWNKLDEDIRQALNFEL

[6] = test system: mucin isolated from Pseudaletia unipuncta peritrophic membranes

O=S(=O)([O-])c1cc(Nc2nc(Nc3ccccc3)nc(N(CCO)CCO)n2)ccc1C=Cc1ccc(Nc2nc(Nc3ccccc3)nc(N(CCO)CCO)n2)cc1S(=O)(=O)[O-].[Na+].[Na+] [Calcofluor]
PM disruption/inhibition (Lymantria dispar): further verified | baculovirus infections in the larvae (T. ni larvae [1]): significantly increased baculovirus infections | PM disruption/inhibition (Hyphantria cunea): further verified | extraction of chitin binding proteins from dissected PMs (T. ni PMs): extract and solubilize chitin binding proteins | PM disruption/inhibition (Helicoverpa zea): further verified | PM disruption/inhibition (Pseudaletia unipuncta): further verified | PM formation (T. ni larvae [2]): completely inhibited and/or disrupted PM formation | insect mortality (T. ni larvae [3]): insect mortality | larval growth (T. ni larvae [3]): significantly slowed the growth

O=C(O)CN(CCN(CC(=O)O)CC(=O)O)CC(=O)O [EDTA]
effect on digestion of IIM by TnGV enhancin (TnGV enhancin): blocked the digestion of the IIM

IIM: novel invertebrate intestinal mucin from T. ni peritrophic membranes; isoforms IIM14 and IIM22
degradation of IIM in PMs by endogenous digestive proteases ([4]; in the presence of O-glycosidase): quickly degraded | degradation of IIM in PMs by endogenous digestive proteases ([4]; sixteen hour incubation): no degradation

Trichoplusia ni granulosis virus (TnGV) enhancin
degradation of IIM examined by SDS/PAGE (in vitro, 1.25 µg/ml enhancin, 37° C., 3 hours or overnight) [5]: Incubation of IIM with TnGV enhancin showed that the enhancin had activity against IIM. | digestion of IIM in the presence of 10 mM EDTA [5]: The addition of 10 mM EDTA to the incubation buffer blocked the digestion of the IIM and confirmed the metalloprotease nature of enhancin. | degradation of the mucin [6]: This mucin is also degraded by the TnGV enhancin
